This is an account of results in patent US20250179437A1, “L[…] FOR PRODUCING PRIMITIVE STREAK CELLS” (UNIVERSITY HEALTH NETWORK, priority 2023, published 2025).

SMILES strings stand for the structures.

Common to all, as to format: cell-based, human
Assay [1] relates to H1 hPSC line. Briefly: Differentiation of hPSCs into primitive streak and definitive endoderm with or without Latrunculin A (flow cytometry). The text has this:
Human pluripotent stem cell (hPSC) lines: For protocol optimization, the H1 hPSC line^1, purchased from WiCell Research Institute (Madison, USA) was employed. This work has received approval from the Stem Cell Oversight Committee (SCOC) as the focus of a Canadian Institutes of Health Research (CIHR) Canada Graduate Scholarship-Doctoral (CGS-D) award.
hPSC expansion and passage: Cells were cryopreserved in a media composed of 50% IMDM (Life Technologies #12440) or StemMACS iPS-brew XF (Miltenyi Biotec #130-104-368), 40% Fetal Bovine Serum (FBS, Gibco #12483-020), and 10% DMSO (Millipore Sigma #D2650). Cryopreserved hPSCs were thawed in DMEM:F12 (Wisent #319-085-CL) at a ratio of 1 mL cells: 9 mL media, centrifuged at 1000 revolutions per minute (RPM) for 5 minutes, and resuspended in StemMACS iPS-brew XF with 10 μM ROCK1/2 inhibitor (Y-27652, Tocris Biosciences #1254). Cells were maintained in monolayer culture in StemMACS iPS-brew XF media with daily media changes. Upon reaching full confluency, cells were passaged by single cell dissociation using TrypLE (Life Technologies #12605) with 1% DNase 1 mg/mL (Calbiochem 260913), centrifuged for 5 min at 1000 RPM, and resuspended in StemMACS iPS-brew XF with 10 μM ROCK1/2 inhibitor (Y-27652, Tocris Biosciences #1254). Cells were split at a cell line-specific ratio to ensure confluency within 2-3 days, upon which differentiation was initiated.
hPSC differentiation: On day 0, confluent cultures of hPSCs in monolayer format were washed with Calcium- and Magnesium-free dPBS (Corning #20-031-CV) and fed with media with or without Latrunculin A to generate primitive streak (day 1) and definitive endoderm (day 3). The media used at day 0, 1, and 2 are specified in the tables below (Tables 1.1-1.2). When reagents were obtained from suppliers as liquids, the concentration is provided as a percentage of reagent volume/base media volume. When reagents were provided as desiccated powders that required reconstitution, the concentration is specified in either mass or molarity per unit volume of fully reconstituted media. All media were supplemented with 1% vol/vol Gibco Penicillin-Streptomycin (ThermoFisher Scientific #15070063). […]
Dissociated cells in suspension culture were filtered through a 35 micrometer cell strainer, centrifuged, and the supernatant was discarded. […] Cells were analyzed on a BD LSRFortessa flow cytometer. […] Experimental data was analyzed using FlowJo Software (BD).
Cell-surface flow cytometry of hPSC-derived cells: Dissociated cells were directly incubated with directly conjugated primary antibodies (table 1.3) in staining buffer for 20 minutes at room temperature. Cells were then washed once, and resuspended in staining buffer containing 1:100,000 DAPI (Biotium #40043) and directly analyzed by flow cytometry. […]
(In general: In flow cytometry, cells or beads pass a laser one at a time.)

For assay [2], the system named is H1 hPSC line. The experiment in a line: Differentiation of hPSC-derived definitive endoderm to NKX2-1+ lung progenitors (flow cytometry, immunofluorescence). Particulars: vs definitive endoderm generated in the absence of LatA. The text has this: (§1) hPSC differentiation: On day 0, confluent cultures of hPSCs in monolayer format were washed with Calcium- and Magnesium-free dPBS (Corning #20-031-CV) and fed with media with or without Latrunculin A to generate primitive streak (day 1) and definitive endoderm (day 3). The media used at day 0, 1, and 2 are specified in the tables below (Tables 1.1-1.2). When reagents were obtained from suppliers as liquids, the concentration is provided as a percentage of reagent volume/base media volume. When reagents were provided as desiccated powders that required reconstitution, the concentration is specified in either mass or molarity per unit volume of fully reconstituted media. All media were supplemented with 1% vol/vol Gibco Penicillin-Streptomycin (ThermoFisher Scientific #15070063).
(§2) Following definitive endoderm formation, cells were treated with differentiation media to generate either pancreatic or lung cells.
In an embodiment, the method comprises steps for differentiate the endodermal cell population to lung cells. […]
Dissociated cells in suspension culture were filtered through a 35 micrometer cell strainer, centrifuged, and the supernatant was discarded. […] Cells were analyzed on a BD LSRFortessa flow cytometer. […] Experimental data was analyzed using FlowJo Software (BD). […]

Assay [3] deals with H1 hPSC line. Briefly: Differentiation of hPSC-derived definitive endoderm to pancreatic progenitors and beta-like cells (flow cytometry).
From the text: as §1, §2
In an embodiment, the method comprises steps for differentiate the endodermal cell population to pancreatic cells. For example, as described herein differentiation from a an endodermal cell at day 3 differentiation to pancreatic lineages involves a series of steps that will differentiate cells to pancreatic progenitors cells at day 12-13 as described by Nostro et al 2015^2 or Yung and Poon 2019^3 and endocrine cells from day 20 onwards as described by Rezania et al 20144, Pagliuca et al., 2014^5, Hogrebe et al. 2020^6 or Balboa et al., 2022^7, where typically stage 1 is known to generate definitive endoderm, stage 4 is known to generate pancreatic progenitors and stage 6 is known to generate islet-like cells. Stage 2 can span for example 2 to 3 days and stage 3 can span for example 1 to 4 days. Stage 2 for example can include contacting the population to be differentiated (e.g. the Stage 1 endoderm cells) with Fibroblast Growth Factor 10 (FGF10), optionally wingless-type MMTV integration site family member 3A (Wnt3a), optionally Retinoic acid (RA), optionally Activin A, and optionally Dorsomorphin to produce Stage 2 differentiated cells. […]

Setting [4] is: day 13, vs control without LatA.

In the case of `C/C1=C/C(=O)O[C@@H]2C[C@@H](CC[C@H](C)/C=C\C=C\CC1)O[C@@](O)([C@@H]1CSC(=O)N1)C2` [Latrunculin A], the “efficiency of primitive streak cell generation” value with H1 hPSC line [1] (Latrunculin A-treated hPSCs) was “high efficiencies”. The “BRA+ primitive streak cells generated” value with H1 hPSC line [1] (high-density hPSCs, MEF-free, LatA at day 0, 24 hours after starting differentiation) is given as “nearly pure populations”. Further, in the assay on H1 hPSC line [1] (high-density hPSCs, day 3 of differentiation, vs control without LatA), the “frequency of FOXA2+SOX17+ definitive endoderm (DE)-like cells” value was “significantly higher frequencies”. Further, the “impairment of high-density cells in their ability to generate BRA+ cells” value with H1 hPSC line [1] (high-density vs low-density hPSCs, LatA treatment at day 0) is on record as “completely abrogated”. Besides, the “frequency of NKX2-1+ lung progenitors” value in the assay with H1 hPSC line [2] is reported as “much higher frequencies”. In addition, in the assay on H1 hPSC line [3] (setting [4]), the “PDX1−NKX6-1− cells” value is given as “greatly reduced” and the “frequency of PDX1+NKX6.1+ hPSC-derived pancreatic progenitors” value is listed as “greater frequency”. Moreover, the “frequency of NKX6-1+CPEP+ beta-like cells” value with H1 hPSC line [3] (day 23 of differentiation, vs control protocol) was “greater frequency”.
